Test results published in BindingDB's records for patent US9745282 (Merck Sharp & Dohme Corp, 2017).

The compounds below were run against T1, Cytochrome P450 11B1, mitochondrial (Homo sapiens, UniProt P15538).
T1 sequence (P15538 whole entry): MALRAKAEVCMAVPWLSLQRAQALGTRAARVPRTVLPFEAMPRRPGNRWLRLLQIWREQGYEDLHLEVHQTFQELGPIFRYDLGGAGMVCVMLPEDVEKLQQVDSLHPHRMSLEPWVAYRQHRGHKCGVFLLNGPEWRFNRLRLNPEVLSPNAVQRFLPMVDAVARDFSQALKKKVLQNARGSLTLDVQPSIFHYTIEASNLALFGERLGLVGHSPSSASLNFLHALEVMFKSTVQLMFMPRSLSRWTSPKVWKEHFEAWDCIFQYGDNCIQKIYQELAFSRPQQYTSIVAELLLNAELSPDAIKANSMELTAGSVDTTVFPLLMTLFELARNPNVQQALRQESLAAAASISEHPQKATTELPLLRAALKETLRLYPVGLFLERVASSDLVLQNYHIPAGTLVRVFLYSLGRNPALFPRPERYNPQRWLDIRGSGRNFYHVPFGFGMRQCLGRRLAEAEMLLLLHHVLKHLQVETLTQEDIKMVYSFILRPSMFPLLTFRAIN

SMILES	IC50 [nM]
CC(=O)N1CCc2cc(-c3cnccc3C)cc(F)c21 [US9745282, 15]	68
O=C(N1CCc2cc(-c3cncc(F)c3)cc(F)c21)C(F)(F)F [US9745282, 33]	1410
O=C(N1CCc2cc(-c3cncc(F)c3)cc(Cl)c21)C(F)(F)F [US9745282, 32]	525
CC(=O)N1CCc2cc(-c3cncc(F)c3C)cc(Cl)c21 [US9745282, 8]	270
CC(C)C(=O)N1CCc2cc(-c3cncc4ccccc34)ccc21 [US9745282, 30]	3720
